Laboratory results from patent publication US10344025B2, “GLS1 inhibitors for treating disease” (Board of Regents, The University of Texas System, priority 2014, dated 2019).

Legend:
[1] = target: purified recombinant human GAC (GLS1) (Homo sapiens (Human), UniProt O94925); experiment: GLS1 Enzymatic Activity Assay (dual-coupled enzymatic assay, resorufin/Amplex UltraRed readout); format: biochemical;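 further: glutamate from GAC coupled via glutamate oxidase and peroxidase to resorufin, read as fluorescence (ex 530, em 590 nm) kinetically or at 20 min, four-parameter logistic IC50 fit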
A549 cells = experiment: Proliferation Assay (A549 viability, Cell Titer Fluor, 72 hours); format: cell-based; settings: Homo sapiens, A549, 72 h
Summary of the method: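 A549 cells seeded at 1000 cells/well, rested 24 h, then exposed to compound in 0.5% DMSO for 72 h at 37 °C. Viability read by Cell Titer Fluor fluorescence; IC50 from four-parameter logistic fit.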

Chain of purified recombinant human GAC (GLS1) (O94925 other isoform, or with tags, fused parts or gaps): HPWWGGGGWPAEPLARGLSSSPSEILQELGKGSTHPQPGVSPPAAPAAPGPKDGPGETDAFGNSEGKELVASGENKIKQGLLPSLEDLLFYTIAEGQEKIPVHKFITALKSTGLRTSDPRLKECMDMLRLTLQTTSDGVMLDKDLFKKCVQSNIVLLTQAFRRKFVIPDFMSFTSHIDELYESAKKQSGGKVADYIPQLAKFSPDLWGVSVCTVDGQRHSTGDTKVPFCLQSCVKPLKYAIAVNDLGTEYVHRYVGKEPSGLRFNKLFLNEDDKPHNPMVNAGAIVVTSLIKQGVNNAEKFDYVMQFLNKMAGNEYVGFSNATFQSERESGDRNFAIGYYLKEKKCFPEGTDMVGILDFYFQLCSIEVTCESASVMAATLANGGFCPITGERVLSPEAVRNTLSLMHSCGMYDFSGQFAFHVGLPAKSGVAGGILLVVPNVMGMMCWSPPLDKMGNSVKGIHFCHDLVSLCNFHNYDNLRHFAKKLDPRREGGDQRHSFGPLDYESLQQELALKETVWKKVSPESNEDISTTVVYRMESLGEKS

| SMILES | IC50 [1] | EC50 (A549 cells) |
| --- | --- | --- |
| CNC(=O)c1cn(CC(F)CCc2nnc(NC(=O)Cc3ccccn3)s2)nn1 (stereo not shown) [Example 519, 1-(2-fluoro-4-{5-[2-(pyridin-2-yl)acetamido]-1,3,4-thiadiazol-2-yl}butyl)-N-methyl-1H-1,2,3-triazole-4-carboxamide] | 100 to 500 nM | 500 to 5000 nM |
| Cc1ccc(CC(=O)Nc2cn(CC(F)CCn3cc(C(=O)NCc4cc(OC(F)(F)F)ccc4F)nn3)nn2)cn1 (stereo not shown) [Example 343, 1-(3-fluoro-4-{4-[2-(6-methylpyridin-3-yl)acetamido]-1H-1,2,3-triazol-1-yl}butyl)-N-{[2-fluoro-5-(trifluoromethoxy)phenyl]methyl}-1H-1,2,3-triazole-4-carboxamide] | < 100 nM | < 100 nM |
| CNC(=O)c1cn(CC(F)CCn2cc(NC(=O)Cc3cccc(OC(F)(F)F)c3)nn2)nn1 (stereo not shown) [Example 538, 1-[2-fluoro-4-(4-{2-[3-(trifluoromethoxy)phenyl]acetamido}-1H-1,2,3-triazol-1-yl)butyl]-N-methyl-1H-1,2,3-triazole-4-carboxamide] | < 100 nM | 100 to 500 nM |
| COCCNC(=O)c1cn(CCCCc2ccc(NC(=O)Cc3cc(OC(F)(F)F)ccc3F)nn2)nn1 [Example 584, 1-(4-(6-(2-(2-fluoro-5-(trifluoromethoxy)phenyl)acetamido)pyridazin-3-yl)butyl)-N-(2-methoxyethyl)-1H-1,2,3-triazole-4-carboxamide] | < 100 nM | 100 to 500 nM |
| O=C(Cc1cccc(OC(F)(F)F)c1)Nc1cn(CCC(F)Cn2cc(C(=O)NCc3cccc(OC(F)(F)F)c3)nn2)nn1 (stereo not shown) [Example 408, 1-[2-fluoro-4-(4-{2-[3-(trifluoromethoxy)phenyl]acetamido}-1H-1,2,3-triazol-1-yl)butyl]-N-{[3-(trifluoromethoxy)phenyl]methyl}-1H-1,2,3-triazole-4-carboxamide] | < 100 nM | < 100 nM |
| O=C(NCc1ccc(C(F)(F)F)nc1)c1cn(CCC(F)Cn2cc(C(=O)NCc3cc(OC(F)(F)F)ccc3F)nn2)nn1 (stereo not shown) [Example 421, 1-{2-fluoro-4-[4-({[6-(trifluoromethyl)pyridin-3-yl]methyl}carbamoyl)-1H-1,2,3-triazol-1-yl]butyl}-N-{[2-fluoro-5-(trifluoromethoxy)phenyl]methyl}-1H-1,2,3-triazole-4-carboxamide] | < 100 nM | < 100 nM |
| O=C(Cc1nccs1)Nc1nnc(CCC(F)Cn2cc(C(=O)NCc3cc(OC(F)(F)F)ccc3F)nn2)s1 (stereo not shown) [Example 573, 1-(2-fluoro-4-(5-(2-(thiazol-2-yl)acetamido)-1,3,4-thiadiazol-2-yl)butyl)-N-(2-fluoro-5-(trifluoromethoxy)benzyl)-1H-1,2,3-triazole-4-carboxamide] | < 100 nM | < 100 nM |
| CNC(=O)c1cn(C[C@H](F)CCc2ccc(NC(=O)Cc3cc(C(F)(F)C4CC4)ccn3)nn2)nn1 [Example 267, (R)-1-(4-(6-(2-(4-(cyclopropyldifluoromethyl)pyridin-2-yl)acetamido)pyridazin-3-yl)-2-fluorobutyl)-N-methyl-1H-1,2,3-triazole-4-carboxamide] | < 100 nM | < 100 nM |
| CNC(=O)c1cn(CC(F)CCc2ccc(NC(=O)Cc3ccccc3)nn2)nn1 (stereo not shown) [Example 244, 1-(2-fluoro-4-(6-(2-phenylacetamido)pyridazin-3-yl)butyl)-N-methyl-1H-1,2,3-triazole-4-carboxamide] | < 100 nM | < 100 nM |
| CNC(=O)c1nnc(CCCCc2ccc(NC(=O)Cc3cc(C(F)(F)F)ccn3)nn2)s1 [Example 229, N-methyl-5-(4-(6-(2-(4-(trifluoromethyl)pyridin-2-yl)acetamido)pyridazin-3-yl)butyl)-1,3,4-thiadiazole-2-carboxamide] | < 100 nM | < 100 nM |
| O=C(CN1CCC(F)(F)C1)Nc1cn(CCCCn2cc(C(=O)NCc3cc(OC(F)(F)F)ccc3F)nn2)nn1 [Example 356, 1-(4-{4-[2-(3,3-difluoropyrrolidin-1-yl)acetamido]-1H-1,2,3-triazol-1-yl}butyl)-N-{[2-fluoro-5-(trifluoromethoxy)phenyl]methyl}-1H-1,2,3-triazole-4-carboxamide] | < 100 nM | < 100 nM |
| O=C(Cc1cccc(OC(F)(F)F)c1)Nc1nnc(CCCCn2cc(C(=O)NCc3cccnc3)nn2)s1 [Example 1, N-(pyridin-3-ylmethyl)-1-[4-(5-{2-[3-(trifluoromethoxy)phenyl]acetamido}-1,3,4-thiadiazol-2-yl)butyl]-1H-1,2,3-triazole-4-carboxamide] | < 100 nM | < 100 nM |
| O=C(NCC(F)(F)F)c1cn(CC(F)CCc2nnc(C(=O)NCc3cc(C(F)(F)F)ccn3)s2)nn1 (stereo not shown) [Example 509, 5-(3-fluoro-4-{4-[(2,2,2-trifluoroethyl)carbamoyl]-1H-1,2,3-triazol-1-yl}butyl)-N-{[4-(trifluoromethyl)pyridin-2-yl]methyl}-1,3,4-thiadiazole-2-carboxamide] | 100 to 500 nM | 100 to 500 nM |
| O=C(NCc1cncc(C(F)(F)F)c1)c1cn(CC(F)CCc2nnc(C(=O)NCc3cc(C(F)(F)F)ccn3)s2)nn1 (stereo not shown) [Example 485, 5-{3-fluoro-4-[4-({[5-(trifluoromethyl)pyridin-3-yl]methyl}carbamoyl)-1H-1,2,3-triazol-1-yl]butyl}-N-{[4-(trifluoromethyl)pyridin-2-yl]methyl}-1,3,4-thiadiazole-2-carboxamide] | < 100 nM | < 100 nM |
| CNC(=O)c1cn(CC(F)CCc2nnc(C(=O)NCc3cccc(N4CCCCC4)c3)s2)nn1 (stereo not shown) [Example 209, 5-(3-fluoro-4-(4-(methylcarbamoyl)-1H-1,2,3-triazol-1-yl)butyl)-N-(3-(piperidin-1-yl)benzyl)-1,3,4-thiadiazole-2-carboxamide] | 100 to 500 nM | 100 to 500 nM |
| O=C(NCc1cncc(C(F)(F)F)c1)c1cn(CCCCn2cc(C(=O)NCC3COC3)nn2)nn1 [Example 91, N-(oxetan-3-ylmethyl)-1-{4-[4-({[5-(trifluoromethyl)pyridin-3-yl]methyl}carbamoyl)-1H-1,2,3-triazol-1-yl]butyl}-1H-1,2,3-triazole-4-carboxamide] | 500 to 5000 nM | > 5000 nM |
| N#CCNC(=O)c1nnc(CCC(F)Cn2cc(C(=O)NCc3cccc(OC(F)(F)F)c3)nn2)s1 (stereo not shown) [Example 515, N-(cyanomethyl)-5-{3-fluoro-4-[4-({[3-(trifluoromethoxy)phenyl]methyl}carbamoyl)-1H-1,2,3-triazol-1-yl]butyl}-1,3,4-thiadiazole-2-carboxamide] | < 100 nM | 100 to 500 nM |
| CNC(=O)c1cn(CCCCc2ccc(NC(=O)CN3CCN(c4cccc(OC(F)(F)F)c4)CC3)nn2)nn1 [Example 228, N-methyl-1-(4-(6-(2-(4-(3-(trifluoromethoxy)phenyl)piperazin-1-yl)acetamido)pyridazin-3-yl)butyl)-1H-1,2,3-triazole-4-carboxamide] | < 100 nM | < 100 nM |
| N#CCNC(=O)c1cn(CC(F)CCc2nnc(NC(=O)Cc3cccc(OC(F)(F)F)c3)s2)nn1 (stereo not shown) [Example 505, N-(cyanomethyl)-1-[2-fluoro-4-(5-{2-[3-(trifluoromethoxy)phenyl]acetamido}-1,3,4-thiadiazol-2-yl)butyl]-1H-1,2,3-triazole-4-carboxamide] | < 100 nM | 100 to 500 nM |
| O=C(NCc1cc(C(F)(F)F)ccn1)c1cn(CCCCn2cc(C(=O)NC[C@H]3CC4CCC3O4)nn2)nn1 (stereo partly drawn) [Example 102, 1-[4-(4-{[(2R)-7-oxabicyclo[2.2.1]heptan-2-ylmethyl]carbamoyl}-1H-1,2,3-triazol-1-yl)butyl]-N-{[4-(trifluoromethyl)pyridin-2-yl]methyl}-1H-1,2,3-triazole-4-carboxamide] | 500 to 5000 nM | 500 to 5000 nM |
| O=C(Cc1cc(OC(F)(F)F)ccc1F)Nc1cn(CCC(F)Cn2cc(C(=O)NCc3cc(C(F)(F)F)ccn3)nn2)nn1 (stereo not shown) [Example 418, 1-[2-fluoro-4-(4-{2-[2-fluoro-5-(trifluoromethoxy)phenyl]acetamido}-1H-1,2,3-triazol-1-yl)butyl]-N-{[4-(trifluoromethyl)pyridin-2-yl]methyl}-1H-1,2,3-triazole-4-carboxamide] | < 100 nM | < 100 nM |
| CNC(=O)c1cn(C[C@H](F)CCc2nnc(NC(=O)Cc3cccc(OC(F)(F)F)c3)s2)nn1 [Example 240, (R)-1-(2-fluoro-4-(5-(2-(3-(trifluoromethoxy)phenyl)acetamido)-1,3,4-thiadiazol-2-yl)butyl)-N-methyl-1H-1,2,3-triazole-4-carboxamide] | < 100 nM | < 100 nM |
| CNC(=O)c1cn(CCCCn2cc(C(=O)NCc3cccc(OC(F)(F)F)c3)nn2)nn1 [Example 95, N-methyl-1-{4-[4-({[3-(trifluoromethoxy)phenyl]methyl}carbamoyl)-1H-1,2,3-triazol-1-yl]butyl}-1H-1,2,3-triazole-4-carboxamide] | 100 to 500 nM | 100 to 500 nM |
| O=C(CC1CCCCC1)Nc1cn(CCCCn2cc(C(=O)NCC3CC3)nn2)nn1 [Example 305, 1-{4-[4-(2-cyclohexylacetamido)-1H-1,2,3-triazol-1-yl]butyl}-N-(cyclopropylmethyl)-1H-1,2,3-triazole-4-carboxamide] | 500 to 5000 nM | 500 to 5000 nM |
| O=C(NCc1cc(OC(F)(F)F)ccc1F)c1cn(CCC(F)Cn2cc(C(=O)NCc3ccc(C(F)(F)F)nc3)nn2)nn1 (stereo not shown) [Example 424, 1-{2-fluoro-4-[4-({[2-fluoro-5-(trifluoromethoxy)phenyl]methyl}carbamoyl)-1H-1,2,3-triazol-1-yl]butyl}-N-{[6-(trifluoromethyl)pyridin-3-yl]methyl}-1H-1,2,3-triazole-4-carboxamide] | < 100 nM | < 100 nM |
| O=C(NCc1cc(C(F)(F)F)ccn1)c1cn(CC(F)CCc2nnc(C(=O)NCCC(F)(F)F)s2)nn1 (stereo not shown) [Example 511, 5-{3-fluoro-4-[4-({[4-(trifluoromethyl)pyridin-2-yl]methyl}carbamoyl)-1H-1,2,3-triazol-1-yl]butyl}-N-(3,3,3-trifluoropropyl)-1,3,4-thiadiazole-2-carboxamide] | 100 to 500 nM | 500 to 5000 nM |
